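Grown in 96-well plates, cells were treated for 48 hours with each compound at five concentrations. Insufficient inhibition: endpoint recorded as highest concentration tested. GI50: concentration for 50% inhibition of growth.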 The source made the active and inactive calls. Rule as the data show it: active = GI50 up to about 1.1 µM and inactive = higher.
How the values were obtained:
Test in all cases: NCI anticancer screen, dose series, 48 h
NCI-H460 = tested on: NCI-H460
COLO 205 = tested on: COLO 205
MDA-MB-435 = tested on: MDA-MB-435
HOP-92 = tested on: HOP-92
OVCAR-5 = tested on: OVCAR-5
NCI-H226 = tested on: NCI-H226
OVCAR-4 = tested on: OVCAR-4
NCI/ADR-RES = tested on: NCI/ADR-RES
SF-539 = tested on: SF-539
SNB-75 = tested on: SNB-75
CCRF-CEM = tested on: CCRF-CEM
SK-OV-3 = tested on: SK-OV-3
EKVX = tested on: EKVX
IGROV-1 = tested on: IGROV-1
SN12C = tested on: SN12C
MDA-MB-231 = tested on: MDA-MB-231
HCT-15 = tested on: HCT-15
A498 = tested on: A498
ACHN = tested on: ACHN
HT-29 = tested on: HT-29
SR = tested on: SR
DU-145 = tested on: DU-145
TK-10 = tested on: TK-10
SF-268 = tested on: SF-268
786-0 = tested on: 786-0
MCF7 = tested on: MCF7
PC-3 = tested on: PC-3
KM12 = tested on: KM12
T47D = tested on: T47D
A549 = tested on: A549
RPMI-8226 = tested on: RPMI-8226
HCC 2998 = tested on: HCC 2998
HCT-116 = tested on: HCT-116
SW-620 = tested on: SW-620
SF-295 = tested on: SF-295
K562 = tested on: K562
MOLT-4 = tested on: MOLT-4
HOP-62 = tested on: HOP-62
RXF 393 = tested on: RXF 393
U-251 = tested on: U-251
UO-31 = tested on: UO-31
HL-60 = tested on: HL-60
UACC-62 = tested on: UACC-62
NCI-H522 = tested on: NCI-H522
SK-MEL-28 = tested on: SK-MEL-28
M14 = tested on: M14
Malme-3M = tested on: Malme-3M
MDA-N = tested on: MDA-N
OVCAR-8 = tested on: OVCAR-8
NCI-H23 = tested on: NCI-H23
SNB-19 = tested on: SNB-19
SK-MEL-5 = tested on: SK-MEL-5
CAKI-1 = tested on: CAKI-1
OVCAR-3 = tested on: OVCAR-3
LOX IMVI = tested on: LOX IMVI
UACC-257 = tested on: UACC-257
Hs-578T = tested on: Hs-578T

Measured: GI50

O=C(Nc1nccs1)c1cc2c(cc1Cl)Sc1nccn1S2(=O)=O
inactive: NCI-H460 16 µM | COLO 205 16.7 µM | MDA-MB-435 17.2 µM | HOP-92 15.3 µM

CC(=O)OC(C)c1cc2c(s1)C(=O)c1c(C(C)OC(C)=O)csc1C2=O (stereo unspecified)
active: SF-539 1.11 µM | SN12C 0.682 µM | NCI-H460 0.5 µM | DU-145 0.586 µM | MCF7 0.662 µM | SW-620 0.0545 µM | K562 1.01 µM
1.58 µM: HCT-15
inactive: OVCAR-5 1.97 µM | NCI-H226 1.37 µM | OVCAR-4 1.3 µM | NCI/ADR-RES 1.26 µM | SNB-75 2.74 µM | CCRF-CEM 1.49 µM | SK-OV-3 3.6 µM | EKVX 1.74 µM | IGROV-1 1.68 µM | MDA-MB-231 1.55 µM | A498 2.13 µM | ACHN 1.42 µM | HT-29 2.21 µM | SR > 100 µM | COLO 205 1.91 µM | TK-10 2.29 µM | SF-268 3.01 µM | 786-0 1.89 µM | PC-3 2.3 µM | KM12 1.25 µM | T47D 1.85 µM | A549 1.97 µM | RPMI-8226 1.43 µM | HCC 2998 1.73 µM | HCT-116 1.66 µM | SF-295 1.28 µM | MOLT-4 1.95 µM | HOP-62 1.24 µM | HOP-92 3.29 µM | RXF 393 1.31 µM | U-251 1.18 µM | UO-31 1.55 µM

CCOC(=O)C(NC(=O)CC)(C(F)(F)F)P(=O)(OCC)OCC (stereo unspecified)
inactive: HL-60 > 100 µM | SF-539 > 100 µM | SNB-75 > 100 µM | CCRF-CEM > 100 µM | SK-OV-3 > 100 µM | EKVX > 100 µM | SN12C > 100 µM | MDA-MB-231 > 100 µM | UACC-62 > 100 µM | NCI-H522 > 100 µM | A498 > 100 µM | ACHN > 100 µM | HT-29 > 100 µM | SR > 100 µM | DU-145 > 100 µM | SF-268 > 100 µM | MCF7 > 100 µM | SK-MEL-28 > 100 µM | M14 > 100 µM | MDA-MB-435 > 100 µM | T47D > 100 µM | RPMI-8226 > 100 µM | HCC 2998 > 100 µM | HCT-116 > 100 µM | Malme-3M > 100 µM | K562 > 100 µM | MOLT-4 > 100 µM | MDA-N > 100 µM | HOP-62 > 100 µM | U-251 > 100 µM | UO-31 > 100 µM
> 100 µM: HCT-15

CCC1=[N+]([O-])C(C)(C)NC1(C)C
> 10 µM: HCT-15
inactive: OVCAR-5 > 10 µM | NCI-H226 4.95 µM | OVCAR-4 > 10 µM | NCI/ADR-RES > 10 µM | SF-539 > 10 µM | SNB-75 > 10 µM | OVCAR-8 > 10 µM | EKVX > 10 µM | IGROV-1 > 10 µM | SN12C > 10 µM | MDA-MB-231 > 10 µM | ACHN > 10 µM | HT-29 > 10 µM | DU-145 > 10 µM | COLO 205 > 10 µM | TK-10 > 10 µM | SF-268 > 10 µM | NCI-H23 > 10 µM | SNB-19 > 10 µM | SK-MEL-28 > 10 µM | PC-3 > 10 µM | M14 > 10 µM | KM12 > 10 µM | MDA-MB-435 > 10 µM | SK-MEL-5 > 10 µM | A549 > 10 µM | CAKI-1 > 10 µM | HCT-116 > 10 µM | SW-620 > 10 µM | SF-295 > 10 µM | OVCAR-3 > 10 µM | MDA-N > 10 µM | HOP-92 > 10 µM | RXF 393 > 10 µM | U-251 > 10 µM

CN(C)c1nc2oc(-c3ccccc3)c(-c3ccccc3)c2c2nncn12
> 100 µM: HCT-15
inactive: OVCAR-5 > 100 µM | NCI-H226 > 100 µM | OVCAR-4 > 100 µM | NCI/ADR-RES > 100 µM | SF-539 > 100 µM | SNB-75 53.5 µM | CCRF-CEM > 100 µM | SK-OV-3 > 100 µM | OVCAR-8 > 100 µM | EKVX > 100 µM | IGROV-1 > 100 µM | LOX IMVI > 100 µM | SN12C > 100 µM | MDA-MB-231 > 100 µM | UACC-62 > 100 µM | NCI-H522 > 100 µM | A498 > 100 µM | ACHN > 100 µM | HT-29 > 100 µM | SR > 100 µM | DU-145 > 100 µM | COLO 205 > 100 µM | TK-10 > 100 µM | SF-268 > 100 µM | NCI-H23 > 100 µM | 786-0 > 100 µM | MCF7 > 100 µM | SNB-19 > 100 µM | SK-MEL-28 > 100 µM | UACC-257 > 100 µM | M14 > 100 µM | KM12 > 100 µM | MDA-MB-435 > 100 µM | T47D > 100 µM | A549 > 100 µM | CAKI-1 > 100 µM | RPMI-8226 > 100 µM | HCC 2998 > 100 µM | HCT-116 > 100 µM | Hs-578T > 100 µM | SW-620 > 100 µM | SF-295 > 100 µM | K562 > 100 µM | MOLT-4 > 10 µM | HOP-92 > 100 µM | RXF 393 > 100 µM | U-251 > 100 µM | UO-31 > 100 µM

Reference: ChEMBL document CHEMBL1201862, “PubChem BioAssay data set” (2004)
